Source: patent US20260137790A1, “MIXED VASOPRESSIN RECEPTOR AGONIST-ANTAGONIST FOR MODULATING MEAN ARTERIAL PRESSURE” (FERRING B.V., priority 2022, published 2026)
Read-outs that look alike come from different tables or passages of the source. Starred links: 1 amine or outer side, 2 acyl side, 3 side chain; linkers in the order of their positions; H or OH if unused. Positions of bridges follow the written chain, without caps; N, C: chain ends. Non-standard residues stand in square brackets, D forms with d. Residues, ends and D or L forms follow the SMILES beside them. Groups on a side chain read outwards from the residue. Chains are numbered I, II in the order given. *: point of attachment. X1 = CC(=O)NCCCC[C@H](NC(=O)CC[C@H](N)C(N)=O)C(=O)*; isoGln = NC(=O)[C@H](CCC(=O)[*:2])N[*:1]; εLys = N[C@@H](CCCCN[*:1])C(=O)[*:2]; Dab = NCC[C@H](N)C(=O)O; PhAc = O=C(Cc1ccccc1)*

Tests used:
[1] = SC (bolus) injection of high/low buffer compositions in rats: bioavailability, M1 formation; type: in vivo, rat; details: for bioavailability: rat, in vivo, sc, bioavailability of Compound 1, rats
[2] = human, in vivo; for AUC: M1 AUC; for Tmax: M1 tmax
Procedure: (§1) The trial comprised two treatment periods, treatment Period 1 and treatment Period 2 (see FIG. 1).
(§2) The study was conducted in two periods where the treatment in Period 1 was administered as an intravenous infusion, and the treatment in Period 2 was administered as subcutaneous injections. The trial comprised 5 ascending dose panels, each dose panel comprising 8 healthy subjects (6 active, 2 placebo). A new cohort of subjects was used for each dose panel.
(§3) If no safety concerns arose, as judged by the Investigator, the remaining subjects in that dose group were randomized and treated according to the randomization and protocol in a staggered dosing manner.
(§4) Treatment period 2: After a resting period of 2-18 days each subject received a once daily subcutaneous dose for 5 days of the same treatment as in Period 1. The dose was selected to prevent the exposure to exceed the intravenous exposure. […] A SRC evaluated the safety and tolerability of the compound after the completion of all subjects in the dose group.
(§5) The continuation of the same subjects from intravenous to subcutaneous administration was selected to get an as reliable as possible estimate of the bioavailability (F) in the small groups outlined.
(§6) The intravenous dose to the first dose panel was the lowest dose giving a clear signal of pharmacological activity in the preceding trial. The administration was performed by using a piston-driven syringe auto-infusion pump. The administered volume was recorded for each subject.
(§7) In Period 2, subjects received a once-daily subcutaneous injection for 5 days of the same treatment as in Period 1 at different locations on the abdomen (Table 5). The subcutaneous doses were selected based on data from a previous trial.

[3] = in vivo
Procedure: as §1, §2, §3, §4, §5, §6, §7

[4] = Metabolite M1 formation in healthy rats after IV bolus and SC (bolus) injection; type: in vivo; details: rat
Excerpt: A similar study in healthy rats was used to evaluate the differences between metabolite formation of Compound 1 after IV bolus and SC (bolus) injection.

[5] = test system: methionine/choline-deficient (MCD) diet rats; assay: Methionine/choline-deficient (MCD) diet rat model, MAP and portal pressure; details: for Δ MAP, mean / Δ PP, mean: 100 μg/kg IA
[6] = test system: adult male cynomolgus monkeys; assay: Telemetry MAP in healthy monkeys, Compound 1 versus terlipressin; type: in vivo, cynomolgus monkey; details: monkey
Procedure: The in-life portion of the study was performed over multiple dosing sessions using six non-naive adult male cynomolgus monkeys. Animals were previously (3-4 weeks before study start) instrumented with indwelling pressure telemetry devices and trained to be restrained in chairs. Animals had access to food and drinking water ad libitum.
Stock solutions were diluted in saline on the day of administration. Animals with indwelling pressure telemetry devices were trained to be restrained in chairs for 8-h periods.
On the day of administration, animals were restrained, and telemetric measurements were collected continuously starting ≥2 h before administration. Baseline values of arterial pressure (diastolic and systolic), heart rate, and body temperature were obtained. […].
The data reported herein were collected over 19 dosing sessions of four animals each, using a total of six monkeys. Animals were repeat dosed in a crossover design with at least one animal receiving vehicle for each round; the animal receiving vehicle was varied between rounds. A 48- to 72-h washout period was used between dosing sessions. Animals were observed by camera for ˜1 h before dosing (covering the baseline period) and up to 3 h after dosing.

SMILES: CC[C@H](C)[C@@H]1NC(=O)[C@H](Cc2ccccc2)NC(=O)[C@@H](N)CSSC[C@@H](C(=O)N2CCC[C@H]2C(=O)N[C@@H](CCNC(=O)[C@@H](N)CCCCNC(=O)[C@H](CCCCNC(C)=O)NC(=O)CC[C@H](NC(=O)[C@H](CCCNC(=N)N)NC(=O)[C@@H]2CCCN2C(=O)[C@H](C)NC(=O)[C@H](CC(N)=O)NC(=O)[C@H](CCC(N)=O)NC(=O)[C@H](Cc2ccccc2)NC(=O)[C@@H](Cc2ccc(OC)cc2)NC(=O)Cc2ccccc2)C(N)=O)C(=O)NCC(N)=O)NC(=O)[C@H](CC(N)=O)NC(=O)[C@H](CCC(N)=O)NC1=O [Compound 1] (I: H-CFIQNCP[Dab]G-NH2 / II: PhAc-[dY](Me)FQNAPR[isoGln]K(Ac)[εLys]; disulfide I:1-I:6; amide I:8-II:C)
- bioavailability ([1]; buffer about 10 mM): ~13%
- bioavailability ([1]; buffer about 100 mM): ~37%

SMILES: CC[C@H](C)[C@@H]1NC(=O)[C@H](Cc2ccccc2)NC(=O)[C@@H](N)CSSC[C@@H](C(=O)N2CCC[C@H]2C(=O)N[C@@H](CCNC(=O)[C@@H](N)CCCCNC(=O)[C@H](CCCCNC(C)=O)NC(=O)CC[C@H](N)C(N)=O)C(=O)NCC(N)=O)NC(=O)[C@H](CC(N)=O)NC(=O)[C@H](CCC(N)=O)NC1=O [Compound M1] (H-CFIQNCP[Dab]([εLys-X1])G-NH2; disulfide 1-6)
- Cmax ([2]; iv, 0.9 mg, M1 mean Cmax): 0.1 to 0.25 ng/mL
- half-life ([2]; iv, M1 harmonic mean terminal half-life): ~4 h
- AUC ([2]; sc, 0.1 mg, geometric mean): 2.51 ng·h/mL
- AUC ([2]; sc, 0.1 mg, max): 3.5 ng·h/mL
- AUC ([2]; sc, 0.1 mg, mean): 2.6 ng·h/mL
- AUC ([2]; sc, 0.1 mg, min): 1.71 ng·h/mL
- Cmax ([2]; sc, 0.1 mg, M1 Cmax, geometric mean): 0.9 ng/mL
- Cmax ([2]; sc, 0.1 mg, M1 Cmax, max): 1.28 ng/mL
- Cmax ([2]; sc, 0.1 mg, M1 Cmax, mean): 0.93 ng/mL
- Cmax ([2]; sc, 0.1 mg, M1 Cmax, min): 0.7 ng/mL
- half-life ([2]; sc, 0.1 mg, M1 t1/2, harmonic mean): 1.5 h
- half-life ([2]; sc, 0.1 mg, M1 t1/2, max): 2.1 h
- half-life ([2]; sc, 0.1 mg, M1 t1/2, mean): 1.6 h
- half-life ([2]; sc, 0.1 mg, M1 t1/2, min): 1 h
- Tmax ([2]; sc, 0.1 mg, max): 2 h
- Tmax ([2]; sc, 0.1 mg, mean): 0.8 h
- Tmax ([2]; sc, 0.1 mg, median): 0.5 h
- Tmax ([2]; sc, 0.1 mg, min): 0.3 h
- AUC ([2]; sc, 0.3 mg, geometric mean): 6.71 ng·h/mL
- AUC ([2]; sc, 0.3 mg, max): 10.2 ng·h/mL
- AUC ([2]; sc, 0.3 mg, mean): 7.55 ng·h/mL
- AUC ([2]; sc, 0.3 mg, min): 3.2 ng·h/mL
- AUC ([2]; sc, 0.3 mg, min, max (n 1)): 11.3 ng·h/mL
- Cmax ([2]; sc, 0.3 mg, M1 Cmax, geometric mean): 1.63 ng/mL
- Cmax ([2]; sc, 0.3 mg, M1 Cmax, max): 2.93 ng/mL
- Cmax ([2]; sc, 0.3 mg, M1 Cmax, mean): 2.01 ng/mL
- Cmax ([2]; sc, 0.3 mg, M1 Cmax, min): 0.6 ng/mL
- half-life ([2]; sc, 0.3 mg, M1 harmonic mean terminal half-life): 1.5 to 2 h
- half-life ([2]; sc, 0.3 mg, M1 t1/2, harmonic mean): 1.9 h
- half-life ([2]; sc, 0.3 mg, M1 t1/2, max): 2.4 h
- half-life ([2]; sc, 0.3 mg, M1 t1/2, mean): 2 h
- half-life ([2]; sc, 0.3 mg, M1 t1/2, min): 1.5 h
- half-life ([2]; sc, 0.3 mg, M1 t1/2, min, max (n 1)): 2.1 h
- Tmax ([2]; sc, 0.3 mg): 0.5 to 1.5 h
- Tmax ([2]; sc, 0.3 mg, max): 1.1 h
- Tmax ([2]; sc, 0.3 mg, mean): 0.8 h
- Tmax ([2]; sc, 0.3 mg, median): 1 h
- Tmax ([2]; sc, 0.3 mg, min): 0.5 h
- M1 time of Cmax ([3]; human, iv): approx. 5 hours
- M1 AUC, geometric mean ([3]; human, sc, 0.1 mg): 2.68 ng·h/mL
- M1 AUC, max ([3]; human, sc, 0.1 mg): 3.10 ng·h/mL
- M1 AUC, mean ([3]; human, sc, 0.1 mg): 2.70 ng·h/mL
- M1 AUC, min ([3]; human, sc, 0.1 mg): 2.39; h*ng/mL
- M1 Cmax, geometric mean ([3]; human, sc, 0.1 mg): 0.98 ng/mL
- M1 Cmax, max ([3]; human, sc, 0.1 mg): 1.27 ng/mL
- M1 Cmax, mean ([3]; human, sc, 0.1 mg): 1.01 ng/mL
- M1 Cmax, min ([3]; human, sc, 0.1 mg): 0.74; ng/mL
- M1 t1/2, harmonic mean ([3]; human, sc, 0.1 mg): 1.4 h
- M1 t1/2, max ([3]; human, sc, 0.1 mg): 2.2 h
- M1 t1/2, mean ([3]; human, sc, 0.1 mg): 1.6 h
- M1 t1/2, min ([3]; human, sc, 0.1 mg): 0.8; h
- M1 tmax, min ([3]; human, sc, 0.1 mg): 0.5; h
- M1 Cmax, geometric mean ([3]; human, sc, 0.3 mg): 1.76 ng/mL
- M1 Cmax, max ([3]; human, sc, 0.3 mg): 3.62 ng/mL
- M1 Cmax, mean ([3]; human, sc, 0.3 mg): 2.24 ng/mL
- M1 Cmax, min ([3]; human, sc, 0.3 mg): 0.86; ng/mL
- M1 t1/2, mean ([3]; human, sc, 0.3 mg): 2.1 h
- M1 tmax, mean ([3]; human, sc, 0.3 mg): 1.5 h
- M1 tmax, median ([3]; human, sc, 0.3 mg): 1.5 h
- M1 tmax, min ([3]; human, sc, 0.3 mg): 1.0; h
- formation of M1 ([3]; iv): 0-15%
- relative amount of M1 formed, more with 10 mM than with 100 mM buffer ([1]; rats): at least 15%
- relative amount of M1 formed, less with high vs lower buffer concentration ([1]; rats, in some cases): about 50%
- Compound 1 converted to M1 [4]: 80-90%

SMILES: NCCCC[C@H](NC(=O)[C@@H]1CCCN1C(=O)[C@@H]1CSSC[C@H](NC(=O)CNC(=O)CNC(=O)CN)C(=O)N[C@@H](Cc2ccc(O)cc2)C(=O)N[C@@H](Cc2ccccc2)C(=O)N[C@@H](CCC(N)=O)C(=O)N[C@@H](CC(N)=O)C(=O)N1)C(=O)NCC(N)=O [Terlipressin] (H-GGGCYFQNCPKG-NH2; disulfide 4-9)
- Δ MAP, mean ([5]; 0 min): 0.0 mmHg
- Δ PP, mean ([5]; 0 min): 0.0 mmHg
- Δ MAP, mean ([5]; 1 min): 6.1 mmHg
- Δ PP, mean ([5]; 1 min): −1.5 mmHg
- Δ MAP, mean ([5]; 2 min): 10.8 mmHg
- Δ PP, mean ([5]; 2 min): −2.1 mmHg
- Δ MAP, mean ([5]; 3 min): 18.1 mmHg
- Δ PP, mean ([5]; 3 min): −2.3 mmHg
- Δ MAP, mean ([5]; 5 min): 26.3 mmHg
- Δ PP, mean ([5]; 5 min): −2.4 mmHg
- Δ MAP, mean ([5]; 7 min): 30.1 mmHg
- Δ PP, mean ([5]; 7 min): −2.5 mmHg
- Δ MAP, mean ([5]; 10 min): 32.0 mmHg
- Δ PP, mean ([5]; 10 min): −2.4 mmHg
- Δ MAP, mean ([5]; 15 min): 32.9 mmHg
- Δ PP, mean ([5]; 15 min): −2.5 mmHg
- Δ MAP, mean ([5]; 20 min): 33.5 mmHg
- Δ PP, mean ([5]; 20 min): −2.6 mmHg
- Δ MAP, mean ([5]; 30 min): 31.7 mmHg
- Δ PP, mean ([5]; 30 min): −2.5 mmHg
- Δ MAP, mean ([5]; 60 min): 13.3 mmHg
- Δ PP, mean ([5]; 60 min): −2.8 mmHg
- Δ MAP, mean ([5]; 90 min): 5.2 mmHg
- Δ PP, mean ([5]; 90 min): −0.8 mmHg
- highest observed absolute MAP ([5]; 100 μg/kg intra-arterial): 116.6±4.1 mmHg
- maximum ΔMAP ([5]; 100 μg/kg intra-arterial): 33.5±2.6 mmHg
- maximum ΔPP ([5]; 100 μg/kg intra-arterial): −2.8±0.8 mmHg
- average increase in MAP between 30 min and 5 h ([6]; IV bolus 0.03 mg/kg): 6.0 mmHg
- maximum MAP increase from baseline ([6]; IV bolus 0.03 mg/kg): 29.6±3.6 mmHg
- average increase in MAP between 30 min and 5 h ([6]; IV bolus 0.09 mg/kg): 5.8 mmHg
- maximum MAP increase from baseline ([6]; IV bolus 0.09 mg/kg): 29.9±6.2 mmHg
- average increase in MAP between 30 min and 5 h ([6]; IV bolus 0.17 mg/kg): 14.6 mmHg
- maximum MAP increase from baseline ([6]; IV bolus 0.17 mg/kg): 50.8±5.6 mmHg
- average increase in MAP between 30 min and 5 h ([6]; IV bolus 0.34 mg/kg): 14.7 mmHg
- maximum MAP increase from baseline ([6]; IV bolus 0.34 mg/kg): 41.2±7.5 mmHg
- time of maximum MAP increase ([6]; IV bolus, across groups): 5 to 30 min
- time by which Δ MAP was negligible ([6]; IV bolus, all groups): 150 min
